Patent publication US10259810B2, “N-sulfonylated pyrazolo[3,4-b]pyridin-6-carboxamides and method of use” (AbbVie S.à.r.l., priority 2015, dated 2019)

Tests used:
ΔF508-CFTR [1] = molecular target: T1, ΔF508-CFTR (Homo sapiens, UniProt P13569, DEL508-508); experiment: CFTR cell surface levels using HRP-tagged ΔF508-CFTR expressing CFBE cells, in the presence of a co-corrector; type: cell-based; conditions: HRP-tagged ΔF508-CFTR CFBE cells, in the presence of 3 μM co-corrector; for EC50: read-out: EC50
T1 construct: host or cells: CFBE41o-, doxycycline-inducible
Method in brief: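 Chemiluminescent read-out of surface HRP (15 min, dark) after PBS washes. Activity is normalized as 100×(sample−DMSO)/(3 μM co-corrector alone−DMSO).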

ΔF508-CFTR [2] = molecular target: T1, ΔF508-CFTR; experiment: CFTR cell surface levels using HRP-tagged ΔF508-CFTR expressing CFBE cells, intrinsic corrector capacity; type: cell-based; design: % Activation: concentration or dose not given beside the values; conditions: HRP-tagged ΔF508-CFTR expressing CFBE41o- cells, compound alone (intrinsic corrector capacity), 20 hours at 33° C.; for EC50: read-out: EC50
Method in brief: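 Read-out: chemiluminescent HRP activity of ECL4-HRP-tagged ΔF508-CFTR at the cell surface, 15 min substrate in dark. Normalized as 100×(sample−DMSO)/(positive control−DMSO).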

T1 sequence (P13569 with tags, fused parts or gaps DEL508-508): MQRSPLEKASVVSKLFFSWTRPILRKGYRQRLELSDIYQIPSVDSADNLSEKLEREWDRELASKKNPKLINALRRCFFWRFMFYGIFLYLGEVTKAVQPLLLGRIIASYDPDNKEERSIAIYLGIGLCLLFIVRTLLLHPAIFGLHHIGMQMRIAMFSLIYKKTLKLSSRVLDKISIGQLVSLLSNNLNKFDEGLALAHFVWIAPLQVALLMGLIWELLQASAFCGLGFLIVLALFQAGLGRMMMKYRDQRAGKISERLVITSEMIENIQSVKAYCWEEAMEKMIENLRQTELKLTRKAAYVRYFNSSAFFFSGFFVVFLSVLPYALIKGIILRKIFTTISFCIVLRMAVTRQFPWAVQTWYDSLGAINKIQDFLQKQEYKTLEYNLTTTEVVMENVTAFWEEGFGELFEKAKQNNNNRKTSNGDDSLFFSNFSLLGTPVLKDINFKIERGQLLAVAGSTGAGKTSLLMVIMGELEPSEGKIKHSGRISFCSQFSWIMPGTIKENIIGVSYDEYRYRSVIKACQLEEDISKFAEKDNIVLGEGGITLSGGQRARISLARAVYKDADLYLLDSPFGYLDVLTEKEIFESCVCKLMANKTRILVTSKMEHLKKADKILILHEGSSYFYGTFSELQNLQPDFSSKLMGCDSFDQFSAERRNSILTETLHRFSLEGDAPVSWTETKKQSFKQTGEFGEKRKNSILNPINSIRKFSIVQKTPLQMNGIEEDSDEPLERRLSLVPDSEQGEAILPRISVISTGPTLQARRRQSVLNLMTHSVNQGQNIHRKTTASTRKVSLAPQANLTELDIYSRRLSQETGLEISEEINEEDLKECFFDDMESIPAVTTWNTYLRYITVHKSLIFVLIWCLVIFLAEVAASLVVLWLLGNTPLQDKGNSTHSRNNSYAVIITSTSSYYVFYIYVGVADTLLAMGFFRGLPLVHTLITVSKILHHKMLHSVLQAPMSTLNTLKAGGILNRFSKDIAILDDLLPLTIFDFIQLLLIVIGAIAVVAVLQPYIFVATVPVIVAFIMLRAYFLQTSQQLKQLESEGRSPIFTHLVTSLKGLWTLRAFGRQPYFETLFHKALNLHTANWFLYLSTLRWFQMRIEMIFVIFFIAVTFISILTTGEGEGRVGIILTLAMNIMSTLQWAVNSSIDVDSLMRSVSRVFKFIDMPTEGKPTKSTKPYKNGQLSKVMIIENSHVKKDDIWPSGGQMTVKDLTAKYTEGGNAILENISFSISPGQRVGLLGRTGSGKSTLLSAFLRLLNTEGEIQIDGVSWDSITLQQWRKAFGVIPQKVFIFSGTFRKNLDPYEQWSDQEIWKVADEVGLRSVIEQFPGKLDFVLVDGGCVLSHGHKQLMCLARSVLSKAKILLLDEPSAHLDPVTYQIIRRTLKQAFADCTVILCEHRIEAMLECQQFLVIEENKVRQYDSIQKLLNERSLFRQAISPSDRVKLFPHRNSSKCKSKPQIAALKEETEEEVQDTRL

Structure (SMILES)	% Activation (ΔF508-CFTR [1]) [%]	EC50 (ΔF508-CFTR [1]) [nM]	% Activation (ΔF508-CFTR [2]) [%]	EC50 (ΔF508-CFTR [2]) [nM]
CCS(=O)(=O)NC(=O)c1cc(N2CCCCC2)c2c(C)nn(-c3ccccc3)c2n1 [Compound 19, N-(ethanesulfonyl)-3-methyl-1-phenyl-4-(piperidin-1-yl)-1H-pyrazolo[3,4-b]pyridine-6-carboxamide]	304.05	1630	140.85	2650
CC(C)c1nn(-c2ccc(F)cc2)c2nc(C(=O)NS(C)(=O)=O)cc(N3CCCC(C(F)F)C3)c12 (stereo not shown) [Compound 178, 4-[3-(difluoromethyl)piperidin-1-yl]-1-(4-fluorophenyl)-N-(methanesulfonyl)-3-(propan-2-yl)-1H-pyrazolo[3,4-b]pyridine-6-carboxamide]	381.73	232	202.8	347
COCC1CCN(c2cc(C(=O)NS(=O)(=O)N3CCCN(C(C)=O)CC3)nc3c2c(C2CCC2)nn3-c2ccccc2)CC1 [Compound 394, N-(4-acetyl-1,4-diazepane-1-sulfonyl)-3-cyclobutyl-4-[4-(methoxymethyl)piperidin-1-yl]-1-phenyl-1H-pyrazolo[3,4-b]pyridine-6-carboxamide]	366.87	47.9	194.35	99.5
COCC1CCN(c2cc(C(=O)NS(=O)(=O)c3cn[nH]c3)nc3c2c(C2CCC2)nn3-c2ccccc2)CC1 [Compound 253, 3-cyclobutyl-4-[4-(methoxymethyl)piperidin-1-yl]-1-phenyl-N-(1H-pyrazole-4-sulfonyl)-1H-pyrazolo[3,4-b]pyridine-6-carboxamide]	454.4	251	174.6	676
Cc1nn(-c2ccccc2)c2nc(C(=O)NS(=O)(=O)C3CC3)cc(-c3ccc(N4CCOCC4)cc3)c12 [Compound 4, N-(cyclopropanesulfonyl)-3-methyl-4-[4-(morpholin-4-yl)phenyl]-1-phenyl-1H-pyrazolo[3,4-b]pyridine-6-carboxamide]	405.8	298	246.7	838
COCCC1CCN(c2cc(C(=O)NS(C)(=O)=O)nc3c2c(C(C)C)nn3-c2cccc(C)c2)CC1 [Compound 161, N-(methanesulfonyl)-4-[4-(2-methoxyethyl)piperidin-1-yl]-1-(3-methylphenyl)-3-(propan-2-yl)-1H-pyrazolo[3,4-b]pyridine-6-carboxamide]	574.1	355	406.4	730
O=C(NS(=O)(=O)N1CC(F)C1)c1cc(N2CCC(N3CCOCC3)CC2)c2c(C3CCC3)nn(-c3ccc(F)cc3)c2n1 [Compound 569, 3-cyclobutyl-N-(3-fluoroazetidine-1-sulfonyl)-1-(4-fluorophenyl)-4-[4-(morpholin-4-yl)piperidin-1-yl]-1H-pyrazolo[3,4-b]pyridine-6-carboxamide]	436.13	88.9	220.77	112
COCC1CCCN(c2cc(C(=O)NS(C)(=O)=O)nc3c2c(C2CCC2)nn3-c2ccccc2)C1 (stereo not shown) [Compound 153, 3-cyclobutyl-N-(methanesulfonyl)-4-[3-(methoxymethyl)piperidin-1-yl]-1-phenyl-1H-pyrazolo[3,4-b]pyridine-6-carboxamide]	290.05	130	146.7	355
Cc1cc(C)cc(-n2nc(C)c3c(-c4ccc(N5CCOCC5)cc4)cc(C(=O)NS(C)(=O)=O)nc32)c1 [Compound 24, 1-(3,5-dimethylphenyl)-N-(methanesulfonyl)-3-methyl-4-[4-(morpholin-4-yl)phenyl]-1H-pyrazolo[3,4-b]pyridine-6-carboxamide]	380.5	744	193.75	888
CN1CCN(S(=O)(=O)NC(=O)c2cc(N3CCC(CN4CCCC4)CC3)c3c(C4CCC4)nn(-c4ccccc4)c3n2)CC1 [Compound 460, 3-cyclobutyl-N-(4-methylpiperazine-1-sulfonyl)-1-phenyl-4-{4-[(pyrrolidin-1-yl)methyl]piperidin-1-yl}-1H-pyrazolo[3,4-b]pyridine-6-carboxamide]	306.75	505	125.8	596
CC(C)Oc1nn(C2CCCCC2)c2nc(C(=O)NS(C)(=O)=O)cc(-c3ccc(CN4CCC(N(C)C)CC4)cc3)c12 [Compound 643, 1-cyclohexyl-4-(4-{[4-(dimethylamino)piperidin-1-yl]methyl}phenyl)-N-(methanesulfonyl)-3-[(propan-2-yl)oxy]-1H-pyrazolo[3,4-b]pyridine-6-carboxamide]	445.25	497	181.65	506
CC(C)c1nn(-c2ccc(F)cc2F)c2nc(C(=O)NS(C)(=O)=O)cc(-c3cnc(N4CCC(C#N)CC4)nc3)c12 [Compound 139, 4-[2-(4-cyanopiperidin-1-yl)pyrimidin-5-yl]-1-(2,4-difluorophenyl)-N-(methanesulfonyl)-3-(propan-2-yl)-1H-pyrazolo[3,4-b]pyridine-6-carboxamide]	335.5	765	163.83	806
CC(C)c1nn(-c2cccc(N3CCCC3)c2)c2nc(C(=O)NS(C)(=O)=O)cc(-c3ccc(N4CCOCC4)cc3)c12 [Compound 16, N-(methanesulfonyl)-4-[4-(morpholin-4-yl)phenyl]-3-(propan-2-yl)-1-[3-(pyrrolidin-1-yl)phenyl]-1H-pyrazolo[3,4-b]pyridine-6-carboxamide]	649.9	459	469.75	543
CCS(=O)(=O)NC(=O)c1cc(-c2ccc(OC)cc2)c2c(C)nn(-c3ccccc3)c2n1 [Compound 15, N-(ethanesulfonyl)-4-(4-methoxyphenyl)-3-methyl-1-phenyl-1H-pyrazolo[3,4-b]pyridine-6-carboxamide]	346.15	852	151.65	1190
CC(C)c1nn(-c2ccc(F)cc2F)c2nc(C(=O)NS(C)(=O)=O)cc(-c3ccc(N4CCC(C#N)CC4)cc3)c12 [Compound 141, 4-[4-(4-cyanopiperidin-1-yl)phenyl]-1-(2,4-difluorophenyl)-N-(methanesulfonyl)-3-(propan-2-yl)-1H-pyrazolo[3,4-b]pyridine-6-carboxamide]	414.63	221	233.07	287
CC(C)c1nn(-c2ccc(F)cc2)c2nc(C(=O)NS(C)(=O)=O)cc(N3CC4(CCCOC4)C3)c12 [Compound 179, 1-(4-fluorophenyl)-N-(methanesulfonyl)-4-(6-oxa-2-azaspiro[3.5]nonan-2-yl)-3-(propan-2-yl)-1H-pyrazolo[3,4-b]pyridine-6-carboxamide]	248.85	406	89.165	879
